According to patent US20030050306A1, “Novel heteroaryl derivatives, their preparation and use” (H. Lundbeck A/S, priority 1999, published 2003):

Assays:
[1] = target: T1, human cloned dopamine D4.2 receptors (Homo sapiens, UniProt P21917, DEL265-296); assay: Inhibition of the binding of 3H-YM-09151-2 to human dopamine D4 receptors; conditions: human cloned dopamine D4.2 receptors in CHO-cells
T1 construct: expressed in transfected cells; host or cells: CHO cells
T1 sequence (P21917 with tags, fused parts or gaps DEL265-296): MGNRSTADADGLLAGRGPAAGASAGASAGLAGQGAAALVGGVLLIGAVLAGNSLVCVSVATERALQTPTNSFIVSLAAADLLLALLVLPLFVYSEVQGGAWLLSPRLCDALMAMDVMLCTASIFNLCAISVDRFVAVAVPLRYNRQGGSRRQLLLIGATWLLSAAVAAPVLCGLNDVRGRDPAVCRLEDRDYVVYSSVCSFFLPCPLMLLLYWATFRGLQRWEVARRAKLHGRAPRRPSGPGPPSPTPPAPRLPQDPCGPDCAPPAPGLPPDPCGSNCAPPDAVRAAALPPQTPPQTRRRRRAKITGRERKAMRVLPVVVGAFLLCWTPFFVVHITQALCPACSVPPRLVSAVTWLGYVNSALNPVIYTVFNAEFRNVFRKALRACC
Experimental: The compounds of the invention have also been tested for their affinity to dopamine D4 receptors in the following test.
Inhibition of the Binding of ^3H-YM-09151-2 to Human Dopamine D4 Receptors
By this method the inhibition by drugs of the binding of [^3H]YM-09151-2 (0.06 nM) to membranes of human cloned dopamine D4.2 receptors expressed in CHO-cells is determined in vitro. Method modified from NEN Life Science Products, Inc., technical data certificate PC2533-10/96.

[2] = target: T2, cloned human 5-HT1A receptors (Homo sapiens, UniProt P08908); assay: Inhibition of 3H-5-CT binding to human 5-HT1A receptors; conditions: cloned human 5-HT1A receptors in HeLa cells (HA7); for inhibition at 0.1 µM: at 100 nM
T2 construct: expressed in transfected cells; host or cells: HeLa cells (HA7)
T2 sequence (P08908 1-422): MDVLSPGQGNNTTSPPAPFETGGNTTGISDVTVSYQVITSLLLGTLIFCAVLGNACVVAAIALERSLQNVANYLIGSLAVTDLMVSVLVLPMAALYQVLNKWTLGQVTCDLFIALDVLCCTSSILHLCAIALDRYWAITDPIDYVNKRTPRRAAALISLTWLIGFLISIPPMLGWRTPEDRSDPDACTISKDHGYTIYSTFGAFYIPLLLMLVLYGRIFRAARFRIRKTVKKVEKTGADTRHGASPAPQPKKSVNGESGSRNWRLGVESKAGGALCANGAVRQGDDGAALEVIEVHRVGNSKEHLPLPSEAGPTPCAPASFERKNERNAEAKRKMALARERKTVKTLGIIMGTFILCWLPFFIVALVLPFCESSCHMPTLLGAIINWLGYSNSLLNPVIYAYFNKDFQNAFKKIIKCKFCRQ
Experimental: The affinity of the compounds of the invention to 5-HT1A receptors was determined by measuring the inhibition of binding of a radioactive ligand at 5-HT1A receptors as described in the following test:
Inhibition of ^3H-5-CT Binding to Human 5-HT1A Receptors
By this method the inhibition by drugs of the binding of the 5-HT1A agonist ^3H-5-carboxamido tryptamine (3H-5-CT) to cloned human 5-HT1A receptors stably expressed in transfected HeLa cells (HA7) (Fargin, A. et al, J. Biol. Chem., 1989, 264, 14848) is determined in vitro. The assay was performed as a modification of the method described by Harrington, M. A. et at, J. Pharmacol. Exp. Ther., 1994, 268, 1098. Human 5-HT1A receptors (40 μg of cell homogenate) were incubated for 15 minutes at 37° C. in 50 mM Tris buffer at pH 7.7 in the presence of ^3H-5-CT. Non-specific binding was determined by including 10 μM of metergoline. The reaction was terminated by rapid filtration through Unifilter GF/B filters on a Tomtec Cell Harvester. Filters were counted in a Packard Top Counter.

IC50 [1]	inhibition at 0.1 µM [2]	IC50 [2]	inhibition at 0.05 µM ([1]; at 50 nM)	SMILES
23 nM	33%			Cc1cccc(Cl)c1SCCCCN1CCN(c2cc(Cl)cc3c2OC(C)(C)C3)CC1 [Compound 5ax, 1-(5-Chloro-2,2-dimethyl-2,3-dihydro-benzofuran-7-yl)-4-[4-(2-chloro-6-methyl-phenylsulfanyl)-butyl]-piperazine]
12 nM	14%			Cc1cccc(Cl)c1SCCCCN1CCN(c2cc(Cl)cc3c2OCC3(C)C)CC1 [Compound 5ay, 1-(5-Chloro-3,3-dimethyl-2,3-dihydro-benzofuran-7-yl)-4-[4-(2-chloro-6-methyl-phenylsulfanyl)-butyl]-piperazine]
9.9 nM	18%			CC1(C)Cc2cc(Cl)cc(N3CCN(CCCSc4c(Cl)cccc4Cl)CC3)c2O1 [Compound 5az, 1-(5-Chloro-2,2-dimethyl-2,3-dihydro-benzofuran-7-yl)-4-[3-(2,6-dichloro-phenylsulfanyl)-propyl]-piperazine]
1.9 nM		53 nM		Fc1ccc(OCCCCN2CCN(c3cccc4ccsc34)CC2)c(Cl)c1 [Compound 5bc, 1-Benzo[b]thiophen-7-yl-4-[4-(2-chloro-4-fluoro-phenoxy)-butyl]-piperazine]
6.5 nM		52 nM		CC1(C)Cc2cc(Cl)cc(N3CCN(CCCCOc4ccc(F)cc4Cl)CC3)c2O1 [Compound 5bd, 1-(5-Chloro-2,2-dimethyl-2,3-dihydro-benzofuran-7-yl)-4-[4-(2-chloro-4-fluoro-phenoxy)-butyl]-piperazine]
1.2 nM		8 nM		Fc1ccc(OCCCCN2CCN(c3cccc4c3OCCO4)CC2)c(Br)c1 [Compound 5be, 1-[4-(2-Bromo-4-fluoro-phenoxy)-butyl]-4-(2,3-dihydro-benzo[1,4]dioxin-5-yl)-piperazine]
3.1 nM		35 nM		Fc1ccc(OCCCCN2CCN(c3cccc4ccsc34)CC2)c(Br)c1 [Compound 5bf, 1-Benzo[b]thiophen-7-yl-4-[4-(2-bromo-4-fluoro-phenoxy)-butyl]-piperazine]
76 nM		1.7 nM		CC1(C)Cc2cc(Cl)cc(N3CCN(CCCOc4c(Cl)cc(S(C)(=O)=O)cc4Cl)CC3)c2O1 [Compound 5bh, 1-(5-Chloro-2,2-dimethyl-2,3-dihydro-benzofuran-7-yl)-4-[3-(2,6-dichloro-4-methanesulfonyl-phenoxy)-propyl]-piperazine]
87 nM		3.5 nM		CC1(C)COc2c(N3CCN(CCCOc4c(Cl)cc(S(C)(=O)=O)cc4Cl)CC3)cc(Cl)cc21 [Compound 5bi, 1-(5-Chloro-3,3-dimethyl-2,3-dihydro-benzofuran-7-yl)-4-[3-(2,6-dichloro-4-methanesulfonyl-phenoxy)-propyl]-piperazine]
11 nM		22 nM		CC1(C)Cc2cc(Cl)cc(N3CCN(CCCOc4c(Cl)cc(F)cc4Cl)CC3)c2O1 [Compound 5bk, 1-(5-Chloro-2,2-dimethyl-2,3-dihydro-benzofuran-7-yl)-4-[3-(2,6-dichloro-4-fluoro-phenoxy)-propyl]-piperazine]
26 nM		88 nM		CC1(C)COc2c(N3CCN(CCCOc4c(Cl)cc(F)cc4Cl)CC3)cc(Cl)cc21 [Compound 5bl, 1-(5-Chloro-3,3-dimethyl-2,3-dihydro-benzofuran-7-yl)-4-[3-(2,6-dichloro-4-fluoro-phenoxy)-propyl]-piperazine]
2.4 nM		1.7 nM		Fc1cc(F)c(OCCCN2CCN(c3cccc4c3OCCO4)CC2)c(Br)c1 [Compound 5bo, 1-[3-(2-Bromo-4,6-difluoro-phenoxy)-propyl]-4-(2,3-dihydro-benzo[1,4]dioxin-5-yl)-piperazine]
6.2 nM		4.8 nM		Fc1cc(Cl)c(OCCCCN2CCN(c3cccc4c3OCCO4)CC2)c(Cl)c1 [Compound 5bp, 1-[4-(2,6-Dichloro-4-fluoro-phenoxy)-butyl]-4-(2,3-dihydro-benzo[1,4]dioxin-5-yl)-piperazine]
6.3 nM		8.6 nM		Fc1cc(F)c(OCCCN2CCN(c3cccc4ccsc34)CC2)c(Br)c1 [Compound 5bt, 1-Benzo[h]thiophen-7-yl-4-[3-(2-bromo-4,6-difluoro-phenoxy)-propyl]-piperazine]
19 nM		2.2 nM		N#Cc1cc(Br)c(OCCCN2CCN(c3cccc4c3OCCO4)CC2)c(Br)c1 [Compound 5bx, 3,5-Dibromo-4-{3-[4-(2,3-dihydro-benzo[1,4]dioxin-5-yl)-piperazin-1-yl]-propoxy}-benzonitrile]
4.3 nM		2.5 nM		Fc1cc(Br)c(OCCCCN2CCN(c3cccc4c3OCCO4)CC2)c(Br)c1 [Compound 5by]
10 nM		5 nM		Fc1cc(Br)cc(F)c1OCCCCN1CCN(c2cccc3c2OCCO3)CC1 [Compound 5bz, 1-[4-(4-Bromo-2,6-difluoro-phenoxy)-butyl]-4-(2,3-dihydro-benzo[1,4]dioxin-5-yl)-piperazine]
34 nM		9.7 nM		Fc1cc(Br)cc(F)c1OCCCCN1CCN(c2cccc3ccsc23)CC1 [Compound 5cc, 1-Benzo[b]thiophen-7-yl-4-[4-(4-bromo-2,6-difluoro-phenoxy)-butyl]-piperazine]
2.3 nM		8.8 nM		Clc1ccccc1SCCCN1CCN(c2cccc3c2OCCO3)CC1 [Compound 5cd, 1-[3-(2-Chloro-phenylsulfanyl)-propyl]-4-(2,3-dihydro-benzo[1,4]dioxin-5-yl)-piperazine]
16 nM		4.8 nM		Clc1ccccc1SCCCN1CCN(c2cccc3ccsc23)CC1 [Compound 5ce, 1-Benzo[b]thiophen-7-yl-4-[3-(2-chloro-phenylsulfanyl)-propyl]-piperazine]
1.4 nM		4.9 nM		Fc1ccc(OCCCN2CCN(c3cccc4c3OCCO4)CC2)c(F)c1 [Compound 5cf, 1-[3-(2,4-Difluoro-phenoxy)-propyl]-4-(2,3-dihydro-benzo[1,4]dioxin-5-yl)-piperazine]
12 nM		1.7 nM		Fc1cc(Br)cc(F)c1OCCCN1CCN(c2cccc3c2OCCO3)CC1 [Compound 5cg, 1-[3-(4-Bromo-2,6-difluoro-phenoxy)-propyl]-4-(2,3-dihydro-benzo[1,4]dioxin-5-yl)-piperazine]
2 nM		3.5 nM		Fc1ccc(OCCCN2CCN(c3cccc4ccsc34)CC2)c(F)c1 [Compound 5ci, 1-Benzo[b]thiophen-7-yl-4-[3-(2,4-difluoro-phenoxy)-propyl]-piperazine]
59 nM	93%			Fc1cc(Br)cc(F)c1OCCCN1CCN(c2cccc3ccsc23)CC1 [Compound 5cj, 1-Benzo[b]thiophen-7-yl-4-[3-(4-bromo-2,6-difluoro-phenoxy)-propyl]-piperazine]
		180 nM	77%	N#Cc1ccc(N2CCN(CCCOc3ccc(F)cc3Cl)CC2)c2c1OCCO2 [Compound 5ck, 8-{4-[3-(2-chloro-4-fluorophenoxy)-propyl]-piperazin-1-yl}-2,3-dihydro-benzo[1,4]dioxine-5-carbonitrile]

SMILES	IC50 [1]	inhibition at 0.1 µM [2]	IC50 [2]	inhibition at 0.05 µM ([1]; at 50 nM)
Brc1cc(Br)c(OCCCN2CCN(c3cccc4c3OCCO4)CC2)c(Br)c1 [Compound 5bq, 1-(2,3-Dihydro-benzof[1,4]dioxin-5-yl)-4-[3-(2,4,6-tribromo-phenoxy)-propyl]-piperazine]	2.4 nM		1.2 nM	
